# Experimental data as given in PMC2362650, “Phase I and pharmacokinetic study of the topoisomerase II catalytic inhibitor fostriecin” (British Journal of Cancer, 1999).
# “And” between values parts separate entries of the source, which are not always exact repeats. Equal values may be shown once. Read-outs that look alike come from different tables or passages of the source.
# Experiment: Plasma and urine pharmacokinetics (HPLC-UV) in patients after 60-min IV infusion
# Format: in vivo, human
# Details: for half-life / Cmax / AUC / MRT: human, plasma, intravenous; for Cmax: observed value
# Excerpt: Fostriecin (CI-920) is a topoisomerase (topo) II catalytic activity inhibitor (Boritzki et al, 1988) (Figure 1). This novel class of topo II-targeting drugs is considered of potential value for treatment of patients with tumours resistant to classic topo II poisons, including anthracyclines and podophyllotoxins (Cummings and Smyth, 1993). The nuclear enzyme topo II is essential for the regulation of DNA conformation (reviewed in Osheroff et al, 1991). Central in its action is the formation of a complex with DNA. Stabilization of this complex by topo II poisons induces DNA damage and cell death (Froelich-Ammon and Osheroff, 1995). Decreased complex formation due to decreased topo II levels is considered to be an important mechanism of tumour-resistance to topo II poisons (Beck and Danks, 1991). The topo II catalytic inhibitor fostriecin is expected to have increased activity against tumour cells with low topo II levels and this was confirmed in in vitro studies (De Jong et al, 1991). […] Because of increased toxi- city of fostriecin in dogs compared to mice, a dose below one-third of the one-tenth mouse equivalent LD10, 2 mg m-2 day-1, was chosen as starting dose in humans (Clinical Brochure Fostriecin, 1991). […] We also performed an analysis of the human pharmacokinetics of fostriecin and ex vivo experiments to investigate if the plasma drug concentrations achieved were sufficient to inhibit a tenipo- side-resistant tumour cell line. The maximum tolerated dose (MTD) of fostriecin could not be established because drug supply was stopped prematurely. However, results of this study may provide a basis for continued clinical development of this agent. PATIENTS AND METHODS Patient selection, drug administration and evaluation Patient eligibility criteria were: histologically confirmed diagnosis of a solid tumour, no longer amenable to established forms of treatment; age 18-75 years; Eastern Cooperative Oncology Group (ECOG) performance status 2; life expectancy 12 weeks; no Phase I and pharmacokinetic study of the topoisomerase II catalytic inhibitor fostriecin RS de Jong1, NH Mulder1, DRA Uges2, DTh Sleijfer1, FJP Hoppener4, HJM Groen3, PHB Willemse1, WTA van der Graaf1 and EGE de Vries1 Departments of 1Medical Oncology, 2Pharmacy and Toxicology, and 3Pulmonary Diseases, University Hospital Groningen, The Netherlands; 4EORTC New Drug Development Office, Amsterdam, The Netherlands Summary We conducted a phase I and pharmacokinetic study of the topoisomerase II catalytic inhibitor fostriecin. Fostriecin was administered intravenously over 60 min on days 1-5 at 4-week intervals. Dose was escalated from 2 mg m-2 day-1 to 20 mg m-2 day-1 in 20 patients. Drug pharmacokinetics was analysed with high performance liquid chromatography with UV-detection. Plasma collected during drug administration was tested in vitro for growth inhibition of a teniposide-resistant small-cell lung cancer (SCLC) cell line. The predominant toxicities were elevated liver transaminases (maximum common toxicity criteria (CTC) grade 4) and serum creatinine (maximum CTC grade 2). […] Duration of elevated alanine-amino transferase (ALT) was dose-limiting in one patient at 20 mg m-2. Other frequent toxicities were grade 1-2 nausea/vomiting, fever and mild fatigue. […] A metabolite, most probably dephosphorylated fostriecin, was detected in plasma and urine. […] However, further escalation seems possible and is warranted to achieve potentially effective drug levels. Fostriecin has a short plasma half-life and longer duration of infusion should be considered. […]
# [1] = patient no. 1, 2 mg m-2, day 1 course 1, one-compartment model
# [2] = patient no. 3, 2 mg m-2, day 1 course 1, one-compartment model
# [3] = patient no. 4, 2 mg m-2, day 1 course 1, one-compartment model
# [4] = patient no. 5, 4 mg m-2, day 1 course 1, one-compartment model
# [5] = patient no. 6, 4 mg m-2, day 1 course 1, one-compartment model
# [6] = patient no. 7, 4 mg m-2, day 1 course 1, two-compartment model
# [7] = patient no. 11, 6.6 mg m-2, day 1 course 1, two-compartment model
# [8] = patient no. 12, 6.6 mg m-2, day 1 course 1, two-compartment model
# [9] = patient no. 13, 10 mg m-2, day 1 course 1, two-compartment model
# [10] = patient no. 15, 10 mg m-2, day 1 course 1, two-compartment model
# [11] = patient no. 16, 12.2 mg m-2, day 1 course 1, two-compartment model
# [12] = patient no. 18, 12.2 mg m-2, day 1 course 1, two-compartment model
# [13] = patient no. 19, 20 mg m-2, sampling on day 1 of course 2, two-compartment model
# [14] = patient no. 20, 20 mg m-2, day 1 course 1, two-compartment model
smiles,measurement,setting,value
C[C@@](O)(/C=C/[C@H]1CC=CC(=O)O1)[C@@H](C[C@@H](O)\C=C/C=C\C=C\CO)OP(=O)(O)O [fostriecin],half-life,"12.2 mg, patient no. 16, 12.2 mg m-2, day 1 course 1, two-compartment model, read-out: t1/2 (terminal) (converted)",70.2 min
same,Cmax,"12.2 mg, patient no. 18, 12.2 mg m-2, day 1 course 1",2790 ng/mL
same,AUC,"12.2 mg, patient no. 18, 12.2 mg m-2, day 1 course 1, two-compartment model",5320 ng·h/mL
same,MRT,"12.2 mg, patient no. 18, 12.2 mg m-2, day 1 course 1, two-compartment model, read-out: MRT",217 min
same,half-life,"12.2 mg, patient no. 18, 12.2 mg m-2, day 1 course 1, two-compartment model, read-out: t1/2 (initial) (converted)",27.6 min
same,half-life,"12.2 mg, patient no. 18, 12.2 mg m-2, day 1 course 1, two-compartment model, read-out: t1/2 (terminal) (converted)",306 min
same,Cmax,"20 mg, patient no. 19, 20 mg m-2, sampling on day 1 of course 2",3850 ng/mL
same,AUC,"20 mg, patient no. 19, 20 mg m-2, sampling on day 1 of course 2, two-compartment model",4450 ng·h/mL
same,MRT,"20 mg, patient no. 19, 20 mg m-2, sampling on day 1 of course 2, two-compartment model, read-out: MRT",22.8 min
same,half-life,"20 mg, patient no. 19, 20 mg m-2, sampling on day 1 of course 2, two-compartment model, read-out: t1/2 (initial) (converted)",1.8 min
same,half-life,"20 mg, patient no. 19, 20 mg m-2, sampling on day 1 of course 2, two-compartment model, read-out: t1/2 (terminal) (converted)",32.4 min
same,Cmax,"20 mg, patient no. 20, 20 mg m-2, day 1 course 1",6350 ng/mL
same,AUC,"20 mg, patient no. 20, 20 mg m-2, day 1 course 1, two-compartment model",9960 ng·h/mL
same,MRT,"20 mg, patient no. 20, 20 mg m-2, day 1 course 1, two-compartment model, read-out: MRT",49.8 min
same,half-life,"20 mg, patient no. 20, 20 mg m-2, day 1 course 1, two-compartment model, read-out: t1/2 (initial) (converted)",0.6 min
same,half-life,"20 mg, patient no. 20, 20 mg m-2, day 1 course 1, two-compartment model, read-out: t1/2 (terminal) (converted)",45.6 min
same,half-life,"two-compartment model, 95% CI 0-0.76 h, read-out: mean plasma half-life (initial) (converted)",21.6 min
same,MRT,"two-compartment model, 95% CI 0.41-1.97 h, read-out: mean residence time (MRT)",71.4 min
same,half-life,"two-compartment model, 95% CI 0.41-2.61 h, read-out: mean plasma half-life (terminal) (converted)",90.6 min
same,renal excretion as share of drug elimination,"mean, patient nos 12-20, 95% CI 10-17.6%",14.6% and 15%
same,Cl,[1],5.14 l h-1 m-2
same,Vd,[1],4.44 l m-2
same,Cl,[2],2.40 l h-1 m-2
same,Vd,[2],1.86 l m-2
same,Cl,[3],4.11 l h-1 m-2
same,Vd,[3],2.10 l m-2
same,Cl,[4],2.81 l h-1 m-2
same,Vd,[4],2.03 l m-2
same,Cl,[5],3.05 l h-1 m-2
same,Vd,[5],2.03 l m-2
same,Cl,[6],2.31 l h-1 m-2
same,Vd,[6],6.76 l m-2
same,Cl,[7],4.06 l h-1 m-2
same,Vd,[7],2.75 l m-2
same,Cl,[8],2.63 l h-1 m-2
same,Vd,[8],4.64 l m-2
same,Cl,[9],2.97 l h-1 m-2
same,Vd,[9],3.98 l m-2
same,Cl,[10],2.66 l h-1 m-2
same,Vd,[10],5.34 l m-2
same,Cl,[11],2.84 l h-1 m-2
same,Vd,[11],4.80 l m-2
same,Cl,[12],2.32 l h-1 m-2
same,Vd,[12],17.09 l m-2
same,Cl,[13],4.52 l h-1 m-2
same,Vd,[13],3.39 l m-2
same,Cl,[14],1.83 l h-1 m-2
same,Vd,[14],2.01 l m-2
same,mean volume of distribution (Vd),"two-compartment model, 95% CI 2.16-9.11",5.64 l m-2
same,mean Cl (apparent total body clearance),"two-compartment model, 95% CI 2.24-3.57",2.90 l h-1 m-2
same,mean Cl (apparent total body clearance),unit conversion of 2.90 l h-1 m-2,48.3 ml min-1 m-2
